A short description of data set [1]: Determination of specific surface area (SSA), multi-point nitrogen adsorption BET. The format is physicochemical. The following applies: samples vacuum dried overnight at 45° C.; relative pressure 0.05-0.3 p/p0; eleven linear points. An excerpt: The term “about” includes the range of experimental errors, which can normally occur performing a measurement, e.g. ±5% or ±2% or ±1%. Sometimes, such a range can lie within the experimental error, typical of standard methods used for the measurement and/or determination of a given value or range. Particularly, the measurement uncertainty for the Multi-Point B.E.T. specific surface area parameter is equal to 15% for a SSA value greater than 2 m^2/g, and 20% for a SSA less than 2 m^2/g. It is expressed as extended uncertainty obtained by multiplying standard uncertainty by the coverage factor k equal to 2, corresponding to confidence level of about 95%. The uncertainty is related to the method of analysis and obtained as percent value from the analysis of a representative group of samples in the measurement range of the instrument.
Unless otherwise indicated, the data relative to the peaks in the XRPD pattern are meant within the common uncertainty due to the instrument measurement, typically ±0.2 degrees 2θ, when collected with the Kα radiation of copper (λ=1.5419 Å) at room temperature. The present invention provides, in one aspect, a new form of N-[(2S)-1-[3-(3-chloro-4-cyanophenyl)-1H-pyrazol-1-yl]-propan-2-yl]-5-(1-hydroxyethyl)-1H-pyrazole-3-carboxamide (darolutamide), herein called nanocrystalline form or NC form or Form NC, said nanocrystalline form being characterized by having specific surface area (SSA) in the range from about 40 m^2/g to about 150 m^2/g, preferably from about 50 m^2/g to about 135 m^2/g, more preferably from about 60 m^2/g to about 135 m^2/g analyzed using the multi-point nitrogen adsorption technique based on the Brunauer, Emmett and Teller (BET) theory, for example using TriStar (II) automated gas adsorption analyzer, (Micromeritics, Inc.). The samples are suitably vacuum dried overnight at 45° C. The volumetric method can be used at the relative pressure range of 0.05-0.3 p/p0 as reported in the experimental part. Specific surface area is an important physical property for an active pharmaceutical ingredient. This parameter can greatly influence the process of preparation of drugs, such as filtration, purification, blending, tableting as well as the characteristics of the active pharmaceutical ingredient especially its dissolution rate and, in turn, its bio-availability as generally known in the art, e.g. from Kyung Rok Chu et al. Effect of particle size on the dissolution behaviours of poorly water-soluble drugs, Arch. Pharm. Res., 2012 July, 35(7), 1187-95, DOI 10.1007/s12272-012-0709-3.
The specific surface area was measured using the multi-point nitrogen adsorption technique based on the Brunauer, Emmett and Teller (BET) theory using TriStar (II) automated gas adsorption analyzer (Micromeritics, Inc.). All the samples were dried under vacuum overnight hours at 45° C. The volumetric method was applied at the relative pressure range 0.05-0.3 p/p^0, and the Specific Surface Area values were calculated in said pressure range using “Multi-Point BET” calculation method based on eleven linear points.

The conditions of data set [2]: values reported in WO 2018/162793 or by its applicant in annex 1 during European prosecution; cited from earlier work.
The conditions of data set [3]: poorly soluble in the physiological pH range; cited from earlier work.
Data set [4] is described as follows: Stability study at 40° C. and 75% RH (HPLC purity, XRPD). To be noted: double PE bag in HDPE bottle, 1, 3, 6 and 12 months. The class given is physicochemical. On the procedure: 5 aliquots of about 1 g of nanocrystalline form of present invention were stored at the following conditions wherein RH is referred to relative humidity: • 40° C. and 75% RH, double PE bag in HDPE bottle
The sample were analysed before the storage (To), after 1 month, 3 months, 6 months and 12 months using high performance chromatography (HPLC) method to control the purity and X-ray powder diffractogram (XRPD) to evaluate any change in crystalline form.

Converted amounts (≈) assume the structure as drawn. Read-outs that look alike come from different tables or passages of the source.

On to `CC(O)c1cc(C(=O)N[C@@H](C)Cn2ccc(-c3ccc(C#N)c(Cl)c3)n2)[nH]n1` (single isomer, unassigned) [Example 3, darolutamide], for which the “Specific Surface Area (SSA) Multi-point BET” value (“Specific Surface Area” below) in data set [1] was 134.0 m^2/g. Also, the “Concentration of Darolutamide in saturated solution” value (“Concentration of Darolutamide” below) came to 0 µg/mL (0 min, pH 1); 0 µg/mL (0 min, pH 7.5); 159 µg/mL (5 min, pH 1); 162 µg/mL (5 min, pH 7.5); 162 µg/mL (10 min, pH 1); 155 µg/mL (10 min, pH 7.5). The “Concentration of Darolutamide” value came out at 117 µg/mL (60 min, pH 1) and 132 µg/mL (60 min, pH 7.5).

Consider `CC(O)c1cc(C(=O)N[C@@H](C)Cn2ccc(-c3ccc(C#N)c(Cl)c3)n2)[nH]n1` (single isomer, unassigned) [Example 4, darolutamide], for which the “Specific Surface Area” value in data set [1] is 111.7 m^2/g. Also, the “Concentration of Darolutamide” value is, setting by setting: (0 min, pH 1) 0 µg/mL; (0 min, pH 7.5) 0 µg/mL; (5 min, pH 1) 137 µg/mL; (5 min, pH 7.5) 157 µg/mL; (10 min, pH 1) 146 µg/mL; (10 min, pH 7.5) 149 µg/mL. Further, the “Concentration of Darolutamide” value by setting is: (60 min, pH 1) 113 µg/mL; (60 min, pH 7.5) 109 µg/mL.

With `CC(O)c1cc(C(=O)N[C@@H](C)Cn2ccc(-c3ccc(C#N)c(Cl)c3)n2)[nH]n1` (single isomer, unassigned) [Example 5, darolutamide], the “Specific Surface Area” value in data set [1] was 66.8 m^2/g. For the same compound, the “Concentration of Darolutamide” value is, setting by setting: (0 min, pH 1) 0 µg/mL; (0 min, pH 7.5) 0 µg/mL; (5 min, pH 1) 117 µg/mL; (5 min, pH 7.5) 128 µg/mL; (10 min, pH 1) 126 µg/mL; (10 min, pH 7.5) 132 µg/mL. For the same compound, the “Concentration of Darolutamide” value stood at 113 µg/mL (60 min, pH 1) and 109 µg/mL (60 min, pH 7.5).

For `CC(O)c1cc(C(=O)N[C@@H](C)Cn2ccc(-c3ccc(C#N)c(Cl)c3)n2)[nH]n1` (stereo partly drawn) [Comparative example 1a, darolutamide], the “Specific Surface Area” value in data set [1] was 26.6 m^2/g. Besides, the “Concentration of Darolutamide” value (0 min, pH 1) is 0 µg/mL; the “Concentration of Darolutamide” value (0 min, pH 7.5) amounted to 0 µg/mL; the “Concentration of Darolutamide” value (5 min, pH 1) was found to be 20 µg/mL; the “Concentration of Darolutamide” value (5 min, pH 7.5) amounted to 20 µg/mL; the “Concentration of Darolutamide” value (10 min, pH 1) is 20 µg/mL; the “Concentration of Darolutamide” value (10 min, pH 7.5) came to 21 µg/mL. Also, the “Concentration of Darolutamide” value (60 min, pH 1) was found to be 17 µg/mL and the “Concentration of Darolutamide” value (60 min, pH 7.5) is 19 µg/mL.

`CC(O)c1cc(C(=O)N[C@@H](C)Cn2ccc(-c3ccc(C#N)c(Cl)c3)n2)[nH]n1` (stereo partly drawn) [Comparative example 1b, darolutamide]: in data set [1], the “Specific Surface Area” value was found to be 29.5 m^2/g.

Turning to `CC(O)c1cc(C(=O)N[C@@H](C)Cn2ccc(-c3ccc(C#N)c(Cl)c3)n2)[nH]n1` (stereo partly drawn) [Comparative example 1c, darolutamide], the “Specific Surface Area” value in data set [1] came out at 34.4 m^2/g.

In the case of `CC(O)c1cc(C(=O)N[C@@H](C)Cn2ccc(-c3ccc(C#N)c(Cl)c3)n2)[nH]n1` (stereo partly drawn) [Comparative example 2, darolutamide], the “Specific Surface Area” value in data set [1] is recorded as 11.6 m^2/g. The “Concentration of Darolutamide” value runs as follows: (0 min, pH 1) 0 µg/mL; (0 min, pH 7.5) 0 µg/mL; (5 min, pH 1) 23 µg/mL; (5 min, pH 7.5) 22 µg/mL; (10 min, pH 1) 22 µg/mL; (10 min, pH 7.5) 18 µg/mL. Moreover, the “Concentration of Darolutamide” value (60 min, pH 1) came out at 22 µg/mL and the “Concentration of Darolutamide” value (60 min, pH 7.5) came out at 21 µg/mL.

As to `CC(O)c1cc(C(=O)N[C@@H](C)Cn2ccc(-c3ccc(C#N)c(Cl)c3)n2)[nH]n1` (stereo partly drawn) [Crystalline rounded particles sample A unmilled] [darolutamide], the “Specific Surface Area” value in data set [2] is reported as 13 m^2/g.

As to `CC(O)c1cc(C(=O)N[C@@H](C)Cn2ccc(-c3ccc(C#N)c(Cl)c3)n2)[nH]n1` (stereo partly drawn) [Crystalline rounded particles sample B unmilled] [darolutamide], the “Specific Surface Area” value in data set [2] was 12 m^2/g.

Regarding `CC(O)c1cc(C(=O)N[C@@H](C)Cn2ccc(-c3ccc(C#N)c(Cl)c3)n2)[nH]n1` (stereo partly drawn) [Example 10, darolutamide], in data set [1], the “Specific Surface Area” value turned out to be 121.6 m^2/g.

With `CC(O)c1cc(C(=O)N[C@@H](C)Cn2ccc(-c3ccc(C#N)c(Cl)c3)n2)[nH]n1` (stereo partly drawn) [Example 11, darolutamide], in data set [1], the “Specific Surface Area” value came to 66.6 m^2/g.

Regarding `CC(O)c1cc(C(=O)N[C@@H](C)Cn2ccc(-c3ccc(C#N)c(Cl)c3)n2)[nH]n1` (stereo partly drawn) [Example 23, darolutamide], the “Specific Surface Area” value in data set [1] is on record as 46.0 m^2/g.

Turning to `CC(O)c1cc(C(=O)N[C@@H](C)Cn2ccc(-c3ccc(C#N)c(Cl)c3)n2)[nH]n1` (stereo partly drawn) [Example 24, darolutamide], the “Specific Surface Area” value in data set [1] stood at 43.8 m^2/g.

In the case of `CC(O)c1cc(C(=O)N[C@@H](C)Cn2ccc(-c3ccc(C#N)c(Cl)c3)n2)[nH]n1` (stereo partly drawn) [Form I, darolutamide], the “Specific Surface Area” value in data set [2] is on record as 22.1 m^2/g. Moreover, the solubility concentration (5 min) was 20 µg/mL (≈ 50.1 µM).

`CC(O)c1cc(C(=O)N[C@@H](C)Cn2ccc(-c3ccc(C#N)c(Cl)c3)n2)[nH]n1` (stereo partly drawn) [crystalline rounded particles, darolutamide] yielded a solubility concentration (5 min) of 20 µg/mL.

For the compound `CC(O)c1cc(C(=O)N[C@@H](C)Cn2ccc(-c3ccc(C#N)c(Cl)c3)n2)[nH]n1` (stereo partly drawn) [darolutamide, N-[(2S)-1-[3-(3-chloro-4-cyanophenyl)-1H-pyrazol-1-yl]-propan-2-yl]-5-(1-hydroxyethyl)-1H-pyrazole-3-carboxamide], the “Biopharmaceutics Classification System (BCS) class” value in data set [3] is “class II”.

For `CC(O)c1cc(C(=O)N[C@@H](C)Cn2ccc(-c3ccc(C#N)c(Cl)c3)n2)[nH]n1` (stereo partly drawn) [nanocrystalline form, N-[(2S)-1-[3-(3-chloro-4-cyanophenyl)-1H-pyrazol-1-yl]-propan-2-yl]-5-(1-hydroxyethyl)-1H-pyrazole-3-carboxamide], in data set [4], the “chemical stability: purity by HPLC versus initial profile at T0” value is reported as “does not present a significant worsening of the purity” and the “physical stability: change in crystalline form by XRPD” value is on record as “no signs of transformation into a different crystalline form”. For the setting “5 min”, this compound yielded a solubility concentration of 120 to 160 µg/mL.

The values above are taken from patent US20250179025A1, “CRYSTALLINE FORM OF DAROLUTAMIDE” (QUÍMICA SINTÉTICA, S.A., priority 2022, published 2025).
